From US10968203B2, “Pyrimidinyl-pyridyloxy-naphthyl compounds and methods of treating IRE1-related diseases and disorders” (Genentech, Inc., priority 2017, dated 2021)
Where “and” joins values, the source holds several entries; their conditions need not be identical. Equal entries are not always repeated.

system: XBP1s-luc 293 LUC; assay: cellular PD assay, XBP1s-LUC reporter (Example 903); assay type: cell-based; settings: Table 1; read-out: XBP1s-luc 293 LUC (IC50)
Protocol: Inhibition of IRE1α RNase activity was determined in an enzyme assay that measured cleavage of the XBP1 stem loop by autophosphorylated IRE1α. This assay format was chosen to ensure that inhibitors of either the IRE1α kinase or the RNase domains would be identified. Binding to the ATP pocket and inhibition of IRE1α kinase activity are not necessarily required to inhibit the RNase activity. Compounds were also profiled in cellular assays by direct measurement of XBP s (B-DNA assay) or by quantification of the luciferase signal in HT1080 XBP1-Luc, which carries a luciferase fusion that is only in frame and expressed from the spliced XBP1 transcript.
Biological activity of Formula I or I′ compounds was measured by an IRE1 biochemical binding assay (Example 901), a biochemical RNase assay (Example 902), a cellular PD assay, XBP1s-LUC reporter (Example 903), and an IRE1α-based inhibition of multiple myeloma (MM) cell proliferation assay.
All of the exemplary Formula I or I′ compounds in Tables 1 and 2 were made and characterized by LCMS [M+H]^+ (liquid chromatography mass spectroscopy) with detection of parent ion. All of the exemplary Formula I compounds in Tables 1 and 2 were prepared according to the procedures of the Schemes, General Procedures, and Examples. All of the exemplary Formula I or I′ compounds in Tables 1 and 2 were tested for binding to IRE1 (inositol requiring enzyme 1 alpha) and biological activity according to the assays and protocols of Example 901-903. Exemplary Formula I or I′ compounds in Tables 1 and 2 have the following structures, corresponding IUPAC names (ChemBioDraw, Version 12.0.2, CambridgeSoft Corp., Cambridge Mass.), and biological activity. Where more than one name is associated with a Formula I or I′ compound or intermediate in Tables 1 and 2 and the Experimental Procedures, the chemical structure shall define the compound. Assignment of configuration at chiral centers in separated stereoisomers may be tentative, and depicted in Tables 1 and 2 structures for illustrative purposes, before stereochemistry is definitively established, such as from x-ray crystallographic data. In some cases, stereoisomers are separated and tested for biological activity before the stereochemistry of the separated stereoisomers is determined; and stereochemistry in some instances was inferred based on structure-activity relationship (SAR) knowledge from previous compounds. In some cases, the compounds are tested as racemic or diastereomeric mixtures. Where more than one potency value is entered on a row, separated stereoisomers represented by the structure and name on that row were tested. Exemplary compounds of Formula I or I′ in Table 3 can be prepared using methods known in the art or according to procedures similar to those described in the Schemes, General Procedures, and Examples 101-500. Biological activities of compounds in Table 3 can be tested in biological assays, for example, those in Examples 901, 902 and 903 described herein.

In order of rising IC50:
1. CCCS(=O)(=O)Nc1c(F)ccc2c(Oc3ncccc3-c3ccnc(N[C@@H]4CNC[C@@H](F)C4)n3)c(C)ccc12 (single isomer, unassigned) [Example 328]  15.2 nM
2. Cc1ccc2c(NC(=O)[C@@H]3CC34CCC4)cccc2c1Oc1ncccc1-c1ccnc(N[C@H]2CCCNC2)n1 (single isomer, unassigned) [Example 340]  17.7 nM
3. Cc1ccc2c(NC(=O)[C@@H]3CC34CCC4)c(F)ccc2c1Oc1ncccc1-c1ccnc(N[C@H]2CCCNC2)n1 (single isomer, unassigned) [Example 387]  28.3 nM
4. Cc1ccc2c(NC(=O)[C@@H]3CC3(C)C)cccc2c1Oc1ncccc1-c1ccnc(N[C@H]2CCCNC2)n1 (single isomer, unassigned) [Example 287]  39.4 nM
5. Cc1ccc2c(NC(=O)CC(C)(C)C)c(F)ccc2c1Oc1ncccc1-c1ccnc(N[C@@H]2CNC[C@@H](F)C2)n1 (single isomer, unassigned) [Example 322]  40.7 nM
6. Cc1ccc2c(NC(=O)[C@@H]3CC34CC4)c(F)ccc2c1Oc1ncccc1-c1ccnc(N[C@@H]2CNC[C@H](C)C2)n1 (single isomer, unassigned) [Example 389]  41.7 nM
7. Cc1ccc2c(NC[C@H](O)CF)cccc2c1Oc1ncccc1-c1ccnc(N[C@H]2CCCNC2)n1 (single isomer, unassigned) [Example 333]  44.6 nM
8. Cc1ccc2c(NC(=O)[C@@H]3CC34CC4)c(F)ccc2c1Oc1ncccc1-c1ccnc(N[C@H]2CCCNC2)n1 (single isomer, unassigned) [Example 380]  56.6 nM
9. CC[C@@H]1CCN(c2cccc3c(Oc4ncccc4-c4ccnc(N[C@@H]5CNC[C@H](C)C5)n4)c(C)ccc23)C1=O (single isomer, unassigned) [Example 331]  57.9 nM
10. Cc1ccc2c(NCC(C)C#N)cccc2c1Oc1ncccc1-c1ccnc(N[C@H]2CCCNC2)n1 (single isomer, unassigned) [Example 382]  62.3 nM
11. Cc1ccc2c(NC(=O)[C@@H]3CC34CCCC4)cccc2c1Oc1ncccc1-c1ccnc(N[C@H]2CCCNC2)n1 (single isomer, unassigned) [Example 254]  69 nM
12. Cc1ccc2c(NC(=O)C3CC3C(C)C)cccc2c1Oc1ncccc1-c1ccnc(N[C@H]2CCCNC2)n1 (single isomer, unassigned) [Example 230]  80 nM
13. Cc1ccc2c(NC[C@@H](O)CF)cccc2c1Oc1ncccc1-c1ccnc(N[C@H]2CCCNC2)n1 (single isomer, unassigned) [Example 334]  89.7 nM
14. Cc1ccc2c(NC(=O)[C@@H]3CC3C3CC3)cccc2c1Oc1ncccc1-c1ccnc(N[C@H]2CCCNC2)n1 (single isomer, unassigned) [Example 274]  100 nM
15. CC[C@@H]1CCN(c2cccc3c(Oc4ncccc4-c4ccnc(N[C@H]5CCCNC5)n4)c(C)ccc23)C1=O (single isomer, unassigned) [Example 266]  121 nM
16. Cc1ccc2c(NC[C@H]3CC3(F)F)cccc2c1Oc1ncccc1-c1ccnc(N[C@H]2CCCNC2)n1 (single isomer, unassigned) [Example 342]  121 nM
17. Cc1ccc2c(NC(=O)[C@H]3CC34CC4)c(F)ccc2c1Oc1ncccc1-c1ccnc(N[C@@H]2CNC[C@H](C)C2)n1 (single isomer, unassigned) [Example 388]  136 nM
18. Cc1ccc2c(NC(=O)[C@H]3CC34CCC4)cccc2c1Oc1ncccc1-c1ccnc(N[C@H]2CCCNC2)n1 (single isomer, unassigned) [Example 339]  137 nM
19. Cc1ccc2c(NC(=O)[C@@H]3CCC(C)C3)cccc2c1Oc1ncccc1-c1ccnc(N[C@H]2CCCNC2)n1 (single isomer, unassigned) [Example 277]  171 nM
20. Cc1ccc2c(NC[C@@H]3CC3(F)F)cccc2c1Oc1ncccc1-c1ccnc(N[C@H]2CCCNC2)n1 (single isomer, unassigned) [Example 343]  181 nM
21. Cc1ccc2c(NC(=O)[C@H]3CC3(C)C)cccc2c1Oc1ncccc1-c1ccnc(N[C@H]2CCCNC2)n1 (single isomer, unassigned) [Example 288]  185 nM
22. Cc1ccc2c(NC(=O)[C@H]3CCC(F)(F)C3)cccc2c1Oc1ncccc1-c1ccnc(N[C@H]2CCCNC2)n1 (single isomer, unassigned) [Example 270]  189 nM
23. Cc1ccc2c(NC(=O)[C@@H]3CCCC3C)cccc2c1Oc1ncccc1-c1ccnc(N[C@H]2CCCNC2)n1 (single isomer, unassigned) [Example 373]  193 nM
24. CC[C@H]1CCN(c2cccc3c(Oc4ncccc4-c4ccnc(N[C@@H]5CNC[C@H](C)C5)n4)c(C)ccc23)C1=O (single isomer, unassigned) [Example 332]  194 nM
25. Cc1ccc2c(NC(C)c3cscn3)cccc2c1Oc1ncccc1-c1ccnc(N[C@H]2CCCNC2)n1 (single isomer, unassigned) [Example 295]  209 nM
26. CCCS(=O)(=O)Nc1c(F)ccc2c(Oc3ncccc3-c3ccnc(N[C@@H]4CNCC[C@H]4C)n3)c(C)ccc12 (single isomer, unassigned) [Example 327]  254 nM
27. CCC1CCC(=O)N1c1cccc2c(Oc3ncccc3-c3ccnc(N[C@H]4CCCNC4)n3)c(C)ccc12 (single isomer, unassigned) [Example 357]  260 nM
28. Cc1ccc2c(N3CC[C@H](C)C3=O)cccc2c1Oc1ncccc1-c1ccnc(N[C@H]2CCCNC2)n1 (single isomer, unassigned) [Example 257]  264 nM
29. CCC1CC(=O)N(c2cccc3c(Oc4ncccc4-c4ccnc(N[C@H]5CCCNC5)n4)c(C)ccc23)C1 (single isomer, unassigned) [Example 356]  279 nM
30. Cc1ccc2c(NC(=O)[C@H]3CC34CC4)c(F)ccc2c1Oc1ncccc1-c1ccnc(N[C@H]2CCCNC2)n1 (single isomer, unassigned) [Example 379]  279 nM
31. Cc1ccc2c(NC(=O)[C@H]3CC34CCC4)c(F)ccc2c1Oc1ncccc1-c1ccnc(N[C@H]2CCCNC2)n1 (single isomer, unassigned) [Example 386]  280 nM
32. Cc1ccc2c(NCC[C@H]3CC3(F)F)cccc2c1Oc1ncccc1-c1ccnc(N[C@H]2CCCNC2)n1 (single isomer, unassigned) [Example 292]  294 nM
33. Cc1ccc2c(NC(=O)[C@H]3CC3C3CC3)cccc2c1Oc1ncccc1-c1ccnc(N[C@H]2CCCNC2)n1 (single isomer, unassigned) [Example 273]  305 nM
34. Cc1ccc2c(NC(=O)[C@H]3CCC(C)C3)cccc2c1Oc1ncccc1-c1ccnc(N[C@H]2CCCNC2)n1 (single isomer, unassigned) [Example 278]  313 nM
35. Cc1ccc2c(NC(=O)[C@@H]3CCC(F)(F)C3)cccc2c1Oc1ncccc1-c1ccnc(N[C@H]2CCCNC2)n1 (single isomer, unassigned) [Example 269]  336 nM
36. Cc1ccc2c(NC(=O)[C@H]3CC34CCCC4)cccc2c1Oc1ncccc1-c1ccnc(N[C@H]2CCCNC2)n1 (single isomer, unassigned) [Example 253]  352 nM
37. Cc1ccc2c(NCC[C@@H]3CC3(F)F)cccc2c1Oc1ncccc1-c1ccnc(N[C@H]2CCCNC2)n1 (single isomer, unassigned) [Example 291]  361 nM
38. CC[C@H]1CCN(c2cccc3c(Oc4ncccc4-c4ccnc(N[C@H]5CCCNC5)n4)c(C)ccc23)C1=O (single isomer, unassigned) [Example 355]  365 nM
39. Cc1ccc2c(N3C(=O)C4CCCC43)cccc2c1Oc1ncccc1-c1ccnc(N[C@H]2CCCNC2)n1 (single isomer, unassigned) [Example 248]  457 nM
40. Cc1ccc2c(NC(=O)[C@H]3CCCC3C)cccc2c1Oc1ncccc1-c1ccnc(N[C@H]2CCCNC2)n1 (single isomer, unassigned) [Example 372]  470 nM
41. Cc1ccc2c(NC[C@H]3CCOC3)cccc2c1Oc1ncccc1-c1ccnc(N[C@H]2CCCNC2)n1 (single isomer, unassigned) [Example 352]  499 nM
42. Cc1ccc2c(NC[C@@H]3CCOC3)cccc2c1Oc1ncccc1-c1ccnc(N[C@H]2CCCNC2)n1 (single isomer, unassigned) [Example 351]  500 nM

For `Cc1ccc2c(NC(=O)[C@@H]3C[C@@H]3C)cccc2c1Oc1ncccc1-c1ccnc(N[C@H]2CCCNC2)n1` (single isomer, unassigned) [Example 231], the IC50 was 53 nM and 33.3 nM.
